# Assay results: US8962671B2, “Amino-substituted 3-heteroaroylamino-propionic acid derivatives and their use as pharmaceuticals” (Sanofi, priority 2011, dated 2015)
# Target: T1, Recombinant human cathepsin A (Homo sapiens, UniProt P10619)
# T1 construct: Recombinant human cathepsin A (residues 29-480, with a C-terminal 10-His tag); 10-His (C); purchased R&D Systems 1049-SE
# T1 sequence (P10619 29-326 limits assumed): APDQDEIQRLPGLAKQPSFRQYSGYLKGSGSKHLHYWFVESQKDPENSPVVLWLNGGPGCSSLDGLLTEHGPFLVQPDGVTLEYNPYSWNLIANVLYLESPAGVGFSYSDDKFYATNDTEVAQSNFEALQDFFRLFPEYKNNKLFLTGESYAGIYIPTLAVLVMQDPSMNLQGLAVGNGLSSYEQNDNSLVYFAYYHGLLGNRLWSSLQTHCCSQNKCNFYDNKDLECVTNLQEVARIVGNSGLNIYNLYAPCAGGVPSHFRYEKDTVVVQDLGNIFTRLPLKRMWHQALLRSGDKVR
# T1 sequence (P10619 327-480 limits assumed): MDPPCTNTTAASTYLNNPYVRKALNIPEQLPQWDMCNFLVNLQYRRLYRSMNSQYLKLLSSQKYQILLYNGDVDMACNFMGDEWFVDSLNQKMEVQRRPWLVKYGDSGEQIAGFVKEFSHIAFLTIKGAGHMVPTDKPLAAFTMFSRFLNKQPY
# Experiment: Cathepsin A inhibitory activity
# Assay type: biochemical
# Details: activated recombinant human cathepsin A 833 ng/ml, Bodipy FL-labeled bradykinin 2 μM, pH 5.5, 15 min room temperature
# Experimental: a) Cathepsin a Inhibitory Activity
# Recombinant human cathepsin A (residues 29-480, with a C-terminal 10-His tag; R&D Systems, #1049-SE) was proteolytically activated with recombinant human cathepsin L (R&D Systems, #952-CY). Briefly, cathepsin A was incubated at 10 μg/ml with cathepsin L at 1 μg/ml in activation buffer (25 mM 2-(morpholin-4-yl)-ethanesulfonic acid (MES), pH 6.0, containing 5 mM dithiothreitol (DTT)) for 15 min at 37° C. Cathepsin L activity was then stopped by the addition of the cysteine protease inhibitor E-64 (N-(trans-epoxysuccinyl)-L-leucine-4-guanidinobutylamide; Sigma-Aldrich, #E3132; dissolved in activation buffer/DMSO) to a final concentration of 10 μM.
# The activated cathepsin A was diluted in assay buffer (25 mM MES, pH 5.5, containing 5 mM DTT) and mixed with the test compound (dissolved in assay buffer containing (v/v) 3% DMSO) or, in the control experiments, with the vehicle in a multiple assay plate. After incubation for 15 min at room temperature, as substrate then bradykinin carrying an N-Terminal®Bodipy FL (4,4-difluoro-5,7-dimethyl-4-bora-3a,4a-diaza-s-indacene-3-propionyl) label (JPT Peptide Technologies GmbH; dissolved in assay buffer) was added to the mixture. The final concentration of cathepsin A was 833 ng/ml and the final concentration of labeled bradykinin 2 μM. After incubation for 15 min at room temperature the reaction was stopped by the addition of stop buffer (130 mM 2-(4-(2-hydroxy-ethyl)-piperazin-1-yl)-ethanesulfonic acid, pH 7.4, containing (v/v) 0.013%®Triton X-100, 0.13% Coating Reagent 3 (Caliper Life Sciences), 6.5% DMSO and 20 μM ebelactone B (Sigma, #E0886)).
# Uncleaved substrate and product were then separated by a microfluidic capillary electrophoresis on a LabChip® 3000 Drug Discovery System (12-Sipper-Chip; Caliper Life Sciences) and quantified by determination of the respective peak areas. Substrate turnover was calculated by dividing product peak area by the sum of substrate and product peak areas, and the enzyme activity and the inhibitory effect of the test compound thus quantified. From the percentage of inhibition of cathepsin A activity observed with the test compound at several concentrations, the inhibitory concentration IC50, i.e. the concentration which effects 50% inhibition of enzyme activity was, calculated.
row,SMILES,IC50 [nM]
1,"Cc1ccccc1[C@H](CC(=O)O)NC(=O)c1cc(N(C)C(=O)C(C)(C)C)n(-c2ccccc2)n1 [Example 55, (S)-3-({5-[(2,2-Dimethyl-propionyl)-methyl-amino]-1-phenyl-1H-pyrazole-3-carbonyl}-amino)-3-o-tolyl-propionic acid]",17.5
2,"Cc1ccccc1[C@H](CC(=O)O)NC(=O)c1cc(NCC(=O)C(C)(C)C)n(-c2ccccc2)n1 [Example 56, (S)-3-{[5-(3,3-Dimethyl-2-oxo-butylamino)-1-phenyl-1H-pyrazole-3-carbonyl]-amino}-3-o-tolyl-propionic acid]",16.1
3,"Cc1ccccc1[C@H](CC(=O)O)NC(=O)c1cc(NCC(O)C(C)(C)C)n(-c2ccccc2)n1 (stereo partly drawn) [Example 57, (S)-3-{[5-(2-Hydroxy-3,3-dimethyl-butylamino)-1-phenyl-1H-pyrazole-3-carbonyl]-amino}-3-o-tolyl-propionic acid]",12.1
4,"Cc1ccccc1[C@H](CC(=O)O)NC(=O)c1cc(NCC(C)(O)C(C)(C)C)n(-c2ccccc2)n1 (stereo partly drawn) [Example 58, (S)-3-{[5-(2-Hydroxy-2.3,3-trimethyl-butylamino)-1-phenyl-1H-pyrazole-3-carbonyl]-amino}-3-o-tolyl-propionic acid]",38.5
5,"Cc1ccc(C(=O)Nc2cc(C(=O)N[C@@H](CC(=O)O)c3ccccc3C)nn2-c2ccccc2)o1 [Example 61, (S)-3-({5-[(5-Methyl-furan-2-carbonyl)-amino]-1-phenyl-1H-pyrazole-3-carbonyl}-amino)-3-o-tolyl-propionic acid]",62.6
6,"Cc1ccc(C(=O)Nc2cc(C(=O)N[C@@H](CC(=O)O)c3ccc(Cl)cc3Cl)nn2-c2ccccc2)o1 [Example 62, (S)-3-(2,4-Dichloro-phenyl)-3-({5-[(5-methyl-furan-2-carbonyl)-amino]-1-phenyl-1H-pyrazole-3-carbonyl}-amino)-propionic acid]",175
7,"Cc1ccccc1[C@H](CC(=O)O)NC(=O)c1cc(N(C)C(=O)c2ccccc2)n(-c2ccccc2)n1 [Example 63, (S)-3-{[5-(Benzoyl-methyl-amino)-1-phenyl-1H-pyrazole-3-carbonyl]-amino}-3-o-tolyl-propionic acid]",57.2
8,"CN(C(=O)c1ccccc1)c1cc(C(=O)N[C@@H](CC(=O)O)c2ccc(Cl)cc2Cl)nn1-c1ccccc1 [Example 64, (S)-3-{[5-(Benzoyl-methyl-amino)-1-phenyl-1H-pyrazole-3-carbonyl]-amino}-3-(2,4-dichloro-phenyl)-propionic acid]",64.7
9,"Cc1ccccc1[C@H](CC(=O)O)NC(=O)c1cc(N(C)CC(O)C(C)(C)C)n(-c2ccccc2)n1 (stereo partly drawn) [Example 65, (S)-3-({5-[(2-Hydroxy-3,3-dimethyl-butyl)-methyl-amino]-1-phenyl-1H-pyrazole-3-carbonyl}-amino)-3-o-tolyl-propionic acid]",78.3
10,"Cc1ccccc1[C@H](CC(=O)O)NC(=O)c1cc(NC(=O)c2ccccc2)n(-c2ccccc2)n1 [Example 66, (S)-3-[(5-Benzoylamino-1-phenyl-1H-pyrazole-3-carbonyl)-amino]-3-o-tolyl-propionic acid]",30.1
11,"O=C(O)C[C@H](NC(=O)c1cc(NC(=O)c2ccccc2)n(-c2ccccc2)n1)c1ccc(Cl)cc1Cl [Example 67, (S)-3-[(5-Benzoylamino-1-phenyl-1H-pyrazole-3-carbonyl)-amino]-3-(2,4-dichloro-phenyl)-propionic acid]",106
12,"Cc1ccccc1[C@H](CC(=O)O)NC(=O)c1cc(NC(=O)CO[C@@H]2C[C@H](C)CC[C@H]2C(C)C)n(-c2ccccc2)n1 [Example 68, (S)-3-({5-[2-((1R,2S,5R)-2-Isopropyl-5-methyl-cyclohexyloxy)-acetylamino]-1-phenyl-1H-pyrazole-3-carbonyl}-amino)-3-o-tolyl-propionic acid]",1780
13,"Cc1ccccc1[C@H](CC(=O)O)NC(=O)c1cc(NC(=O)C(c2ccccc2)c2ccccc2)n(-c2ccccc2)n1 [Example 69, (S)-3-[(5-Diphenylacetylamino-1-phenyl-1H-pyrazole-3-carbonyl)-amino]-3-o-tolyl-propionic acid]",125
14,"CN(C(=O)c1ccccc1)c1cc(C(=O)N[C@@H](CC(=O)O)c2ccccc2Cl)nn1-c1ccccc1 [Example 70, (S)-3-{[5-(Benzoyl-methyl-amino)-1-phenyl-1H-pyrazole-3-carbonyl]-amino}-3-(2-chloro-phenyl)-propionic acid]",5.7
15,"CN(C(=O)c1ccccc1)c1cc(C(=O)N[C@@H](CC(=O)O)c2cccc(Cl)c2)nn1-c1ccccc1 [Example 71, (S)-3-{[5-(Benzoyl-methyl-amino)-1-phenyl-1H-pyrazole-3-carbonyl]-amino}-3-(3-chloro-phenyl)-propionic acid]",56.7
16,"Cc1ccc([C@H](CC(=O)O)NC(=O)c2cc(N(C)C(=O)c3ccccc3)n(-c3ccccc3)n2)cc1 [Example 72, (S)-3-{[5-(Benzoyl-methyl-amino)-1-phenyl-1H-pyrazole-3-carbonyl]-amino}-3-p-tolyl-propionic acid]",102
17,"O=C(O)CC(NC(=O)c1cc(NC(=O)c2ccccc2)n(-c2ccccc2)n1)C1CCCCC1 (centres unmarked) [Example 74, 3-[(5-Benzoylamino-1-phenyl-1H-pyrazole-3-carbonyl)-amino]-3-cyclohexyl-propionic acid]",78.6
18,"O=C(O)CC(Cc1ccccc1)NC(=O)c1cc(NC(=O)c2ccccc2)n(-c2ccccc2)n1 (centres unmarked) [Example 75, 3-[(5-Benzoylamino-1-phenyl-1H-pyrazole-3-carbonyl)-amino]-4-phenyl-butyric acid]",370
19,"CC(C)C[C@@H](CC(=O)O)NC(=O)c1cc(NC(=O)c2ccccc2)n(-c2ccccc2)n1 [Example 76, (S)-3-[(5-Benzoylamino-1-phenyl-1H-pyrazole-3-carbonyl)-amino]-5-methyl-hexanoic acid]",22000
20,"O=C(O)CC1(NC(=O)c2cc(NC(=O)c3ccccc3)n(-c3ccccc3)n2)CCCC1 [Example 77, {1-[(5-Benzoylamino-1-phenyl-1H-pyrazole-3-carbonyl)-amino]-cyclopentyl}-acetic acid]",73.4
21,"O=C(O)C[C@H](NC(=O)c1cc(NC(=O)c2ccccc2)n(-c2ccccc2)n1)c1ccc(F)cc1 [Example 78, (S)-3-[(5-Benzoylamino-1-phenyl-1H-pyrazole-3-carbonyl)-amino]-3-(4-fluoro-phenyl)-propionic acid]",34.1
22,"Cc1ccc([C@H](CC(=O)O)NC(=O)c2cc(NC(=O)c3ccccc3)n(-c3ccccc3)n2)c(C)c1 [Example 79, (S)-3-[(5-Benzoylamino-1-phenyl-1H-pyrazole-3-carbonyl)-amino]-3-(2,4-dimethyl-phenyl)-propionic acid]",108
23,"O=C(Nc1cc(C(=O)NCC(C(=O)O)c2ccccc2)nn1-c1ccccc1)c1ccccc1 (centres unmarked) [Example 82, 3-[(5-Benzoylamino-1-phenyl-1H-pyrazole-3-carbonyl)-amino]-2-phenyl-propionic acid]",4870
24,"O=C(O)C[C@H](NC(=O)c1cc(NC(=O)c2ccccc2)n(-c2ccccc2)n1)c1ccccc1F [Example 83, (S)-3-[(5-Benzoylamino-1-phenyl-1H-pyrazole-3-carbonyl)-amino]-3-(2-fluoro-phenyl)-propionic acid]",147
25,"O=C(O)C[C@H](NC(=O)c1cc(NC(=O)c2ccccc2)n(-c2ccccc2)n1)c1ccccc1C(F)(F)F [Example 84, (S)-3-[(5-Benzoylamino-1-phenyl-1H-pyrazole-3-carbonyl)-amino]-3-(2-trifluoromethyl-phenyl)-propionic acid]",386
26,"CCNc1cc(C(=O)N[C@@H](CC(=O)O)c2ccccc2C)nn1-c1ccccc1 [Example 85, (S)-3-[(5-Ethylamino-1-phenyl-1H-pyrazole-3-carbonyl)-amino]-3-o-tolyl-propionic acid]",80.2
